Tests used:
ZmCK2α = biological target: T1, ZmCK2α (Zea mays, UniProt P28523); details: 25 uM ATP, 10 mM MgCl2, pH 7.5, 30 °C; labelled compound; GST-Rh2b phosphorylated, GST-AMA1 not
T1 construct: gene ACK2

MmPKAc = biological target: T2, MmPKAc (Mus musculus, UniProt P05132); details: 25 uM ATP, 10 mM MgCl2, pH 7.5, 30 °C; labelled compound; GST-AMA1 phosphorylated, GST-Rh2b not
T2 construct: gene Prkaca

[1] = biological target: T3, PfCK2 α (CK2–HA, immunoprecipitated) (Plasmodium falciparum, UniProt Q8IIR9); experiment: phosphorylation of GST-Rh2b CPD by immunoprecipitated CK2-HA, phospho-specific Western blot; assay type: biochemical; details: 25 uM ATP, 10 mM MgCl2, pH 7.5, 30 °C; protein substrate GST-Rh2b CPD; kinase on beads
T3 construct: gene PF3D7_1108400; full coding region with C-terminal 3xHA tag, overexpressed episomally (crt promoter) in 3D7 parasites, immunoprecipitated on anti-HA/Protein G beads, ~42 kDa band; endogenous beta1/beta2 subunits could co-precipitate
T3 sequence (Q8IIR9 entry or part of it): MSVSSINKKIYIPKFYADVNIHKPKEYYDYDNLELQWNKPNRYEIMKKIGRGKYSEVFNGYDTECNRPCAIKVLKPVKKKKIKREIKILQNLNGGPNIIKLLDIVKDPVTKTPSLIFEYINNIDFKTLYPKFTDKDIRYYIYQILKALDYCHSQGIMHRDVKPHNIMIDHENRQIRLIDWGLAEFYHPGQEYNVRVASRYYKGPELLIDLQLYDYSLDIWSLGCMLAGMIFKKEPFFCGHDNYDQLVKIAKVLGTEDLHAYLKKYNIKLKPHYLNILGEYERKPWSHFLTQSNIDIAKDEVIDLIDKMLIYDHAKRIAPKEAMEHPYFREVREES

T1 sequence (P28523 whole entry): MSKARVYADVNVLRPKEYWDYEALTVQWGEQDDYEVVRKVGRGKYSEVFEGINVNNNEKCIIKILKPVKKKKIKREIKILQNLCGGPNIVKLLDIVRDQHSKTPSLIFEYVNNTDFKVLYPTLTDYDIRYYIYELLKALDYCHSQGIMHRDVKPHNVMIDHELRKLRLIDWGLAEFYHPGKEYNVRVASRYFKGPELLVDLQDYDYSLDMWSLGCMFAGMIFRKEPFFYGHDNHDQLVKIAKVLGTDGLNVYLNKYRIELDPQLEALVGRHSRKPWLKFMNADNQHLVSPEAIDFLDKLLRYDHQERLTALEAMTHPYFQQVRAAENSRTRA

Row | Structure (SMILES) | in vitro kinase assay with GST-Rh2b CPD, [γ-32P]ATP (ZmCK2α) | in vitro kinase assay with GST-AMA1 CPD, [γ-32P]ATP (MmPKAc) | inhibition (qualitative) [1]
1 | Nc1ncnc2c1ncn2[C@@H]1O[C@H](COP(=O)(O)OP(=O)(O)OP(=O)(O)O)[C@@H](O)[C@H]1O [ATP] | the enzyme was able to phosphorylate GST–Rh2b | Although MmPKAc phosphorylated AMA1–GST, it showed no reactivity against GST–Rh2b | 
2 | O=C(O)/C=C/c1cc(Br)c(Br)c(Br)c1Br [TBCA] |  |  | sensitive to heparin treatment (Figure 4E) and to increasing amounts of TBCA (Figure 4F)

Reference: paper PMC3671792 (Biochemical Journal, 2013)
